From PubChem BioAssay (NCI)
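Values below derive from 48-hour exposures of cells grown in 96-well plates, with endpoints linearly interpolated between the two concentrations bracketing the appropriate inhibition level. GI50 = concentration required for 50% inhibition of growth. TGI: concentration producing complete growth inhibition.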

How the values were obtained:
Test in all cases: growth of human tumour cells (NCI), 48 h
OVCAR-5 ovarian = system: OVCAR-5 ovarian
CCRF-CEM leukemia = system: CCRF-CEM leukemia
MDA-MB-435 = system: MDA-MB-435
SF-295 CNS = system: SF-295 CNS
OVCAR-4 ovarian = system: OVCAR-4 ovarian
U251 CNS = system: U251 CNS
SW-620 colon = system: SW-620 colon
MDA-MB-231 breast = system: MDA-MB-231 breast
KM12 colon = system: KM12 colon
MALME-3M melanoma = system: MALME-3M melanoma

Row | Structure (SMILES) | TGI (OVCAR-5 ovarian) [µM] | TGI (CCRF-CEM leukemia) [µM] | TGI (MDA-MB-435) [µM] | TGI (SF-295 CNS) [µM] | TGI (OVCAR-4 ovarian) [µM] | TGI (U251 CNS) [µM] | TGI (SW-620 colon) [µM] | TGI (MDA-MB-231 breast) [µM] | TGI (KM12 colon) [µM] | TGI (MALME-3M melanoma) [µM] | GI50 (OVCAR-5 ovarian) [µM] | GI50 (CCRF-CEM leukemia) [µM] | GI50 (MDA-MB-435) [µM] | GI50 (SF-295 CNS) [µM] | GI50 (OVCAR-4 ovarian) [µM] | GI50 (U251 CNS) [µM] | GI50 (SW-620 colon) [µM] | GI50 (MDA-MB-231 breast) [µM] | GI50 (KM12 colon) [µM] | GI50 (MALME-3M melanoma) [µM]
1 | O=c1[nH]nc(-c2ccccc2)n1O | > 100 | > 100 | > 100 | > 100 | > 100 | > 100 | > 100 | > 100 | > 100 | > 100 |  |  |  |  |  |  |  |  |  | 
2 | N#Cc1nc(C#N)n(S(=O)(=O)c2ccccc2)c1NS(=O)(=O)c1ccccc1 | > 100 | > 100 | > 100 | > 100 | > 100 | > 100 | > 100 | > 100 | > 100 | > 100 |  |  |  |  |  |  |  |  |  | 
3 | COc1ccc(C(=O)/C=C/c2ccc(OCC#N)cc2)cc1 | > 100 | 81 | 59.3 | > 100 | > 100 | 32.5 | 33.6 | 72.5 | 32.6 | 43.7 |  |  |  |  |  |  |  |  |  | 
4 | O=c1[nH]c2nc3ccccc3c(=O)n2/c1=C/c1ccco1 | > 100 | > 100 | > 100 | > 100 | > 100 | > 100 | > 100 | > 100 | > 100 | > 100 |  |  |  |  |  |  |  |  |  | 
5 | COc1ccc(Nc2ccc([N+](=O)[O-])cc2[N+](=O)[O-])cc1CN(CCCl)CCCl | 8.94 | 20.7 | 4.39 | 19.7 | > 100 | 30 | 13.4 | 9.44 | 51 | 4.71 | 2.51 | 0.64 | 1.92 | 2.79 | 2.7 | 3.11 | 2.11 | 2.69 | 3.66 | 1.96
6 | O=[N+]([O-])c1ccc(C(O)(C#CCN2CCCC2)c2ccccc2)cc1 (stereo not given) | > 100 | 57.5 | 80.1 | > 100 | > 100 | > 100 | > 100 | > 100 | > 100 | 30.4 |  |  |  |  |  |  |  |  |  | 
7 | CN(CCCNC(=O)c1cc(-c2ccccc2)nc2ccccc12)CCCNC(=O)c1cc(-c2ccccc2)nc2ccccc12 | 4.81 | 17.6 | 3.17 | 3.31 | 11.3 | 4.05 | 3.38 | 7.93 | 4.75 | 3.39 |  |  |  |  |  |  |  |  |  | 
8 | CCOC(=O)C1CCCCN1C(=O)Cc1c[nH]c2ccccc12 (stereo not given) | > 100 | > 100 | > 100 | > 100 | > 100 | > 100 | > 100 | > 100 | > 100 | > 100 |  |  |  |  |  |  |  |  |  | 
9 | c1ccc(CC2COC(c3cccs3)=N2)cc1 (stereo not given) | > 100 | > 100 | > 100 | > 100 | > 100 | > 100 | > 100 | > 100 | > 100 | > 100 |  |  |  |  |  |  |  |  |  | 
10 | O=C(c1ccco1)N(C(=O)N1CCN(c2ccccc2)CC1)S(=O)(=O)c1ccccc1 | > 100 | 87.6 | 56.3 | > 100 | > 100 | 72.2 | > 100 | > 100 | > 100 | 99.8 |  |  |  |  |  |  |  |  |  | 
11 | COC(=O)Cc1c(-c2c(CC(=O)OC)c3ccccc3n2C2OC(COC(C)=O)C(OC(C)=O)C(OC(C)=O)C2OC(C)=O)[nH]c2ccccc12 (stereo not given) | > 100 | > 100 | > 100 | > 100 | > 100 | > 100 | > 100 | > 100 | > 100 | > 100 |  |  |  |  |  |  |  |  |  | 
12 | CCCCNc1nc(NC2OCC(OC(C)=O)C(OC(C)=O)C2OC(C)=O)c(N=O)c(=O)n1C (stereo not given) | > 10 | > 10 | > 10 | > 10 | > 10 | > 10 | > 10 | > 10 | > 10 | > 10 |  |  |  |  |  |  |  |  |  | 
13 | Nc1nc2c(C(=O)O)c3ccc([N+](=O)[O-])cc3c(=O)n2c2ccccc12 | > 100 | > 100 | > 100 | 95.5 | > 100 | 92.9 | > 100 | 79.1 | > 100 | > 100 |  |  |  |  |  |  |  |  |  | 
14 | c1ccc(N=C2c3ccsc3C(=Nc3ccccc3)c3ccsc32)cc1 | 3.12 | 15 | 0.378 | 3.11 | 3.32 | 4.01 | 3.93 | 4.5 | 6.35 | 0.921 |  |  |  |  |  |  |  |  |  | 
15 | CC1(C)CC(=O)c2c(nc3c4c([nH]c(-c5ccc(Br)cc5)c24)CC(C)(C)C3)C1 | > 100 | > 100 | > 100 | > 100 | > 100 | > 100 | > 100 | > 100 | > 100 | > 100 |  |  |  |  |  |  |  |  |  | 
16 | COc1cc(CNc2nc3ccccc3nc2C(=O)O)cc(OC)c1OC | > 100 | > 100 | > 100 | > 100 | > 100 | > 100 | > 100 | > 100 | > 100 | > 100 |  |  |  |  |  |  |  |  |  | 
17 | O=C1c2c(Br)sc(Br)c2[C@@H](NC(=O)C(F)(F)F)C1Br (stereo not given in full) | 24.4 | 5.64 | 5.27 | 31.6 | 5.33 | 9.08 | > 21.9 | 6.06 | 17.7 | 4.88 |  |  |  |  |  |  |  |  |  | 
18 | COc1ccc(C2=NOC(N)(c3ccc(OC)cc3)C2)cc1 (stereo not given) | > 100 | > 100 | > 100 | > 100 | > 100 | > 100 | > 100 | > 100 | > 100 | > 100 |  |  |  |  |  |  |  |  |  | 
19 | C=CCOc1ccc(C2C(C(=O)OC)C(=O)CC(O)(c3ccccc3)C2C(=O)OC)cc1OC (stereo not given) | > 100 | > 100 | > 100 | > 100 | 69.5 | > 100 | > 100 | 38.2 | > 100 | > 100 |  |  |  |  |  |  |  |  |  | 
20 | Clc1ccc2oc(CCc3ccccc3)nc2c1 | > 100 | > 100 | > 100 | > 100 | > 100 | > 100 | > 100 | > 100 | > 100 | > 100 |  |  |  |  |  |  |  |  |  | 
21 | COC(=O)C1CCC(=O)N1C(c1ccc2c(c1)OCO2)c1cc(OC)c(OC)c(OC)c1 (stereo not given) | > 100 | > 100 | > 100 | > 100 | > 100 | > 100 | > 100 | > 100 | > 100 | > 100 |  |  |  |  |  |  |  |  |  | 
22 | CCN(CC)c1nnc(CCCCCCCCc2nnc(N(CC)CC)o2)o1 | > 100 | > 100 | > 100 | > 100 | > 100 | > 100 | > 100 | > 100 | > 100 | > 100 |  |  |  |  |  |  |  |  |  | 
23 | O=C1Cc2c([nH]c3ccc(C(=O)O)cc23)-c2ccccc2N1 | > 100 | > 100 | > 100 | > 100 | > 100 | > 100 | > 100 | > 100 | > 100 | > 100 |  |  |  |  |  |  |  |  |  | 
24 | NC(Cc1ccc(S(=O)(=O)O)cc1)C(=O)NC(Cc1ccc(S(=O)(=O)O)cc1)C(=O)NC(Cc1ccc(S(=O)(=O)O)cc1)C(=O)NC(Cc1ccc(S(=O)(=O)O)cc1)C(=O)O (stereo not given) | > 100 | > 100 | > 100 | > 100 | > 100 | > 100 | > 100 | > 100 | > 100 | > 100 |  |  |  |  |  |  |  |  |  | 
